Like-named read-outs stand apart in the source and are kept apart here.
How the values were obtained:
Assay in all cases: Radiolabeled ATP kinase assay, panel of 371 kinases (Table S6)
Type in all cases: biochemical
[1] = target: T1, panel of 371 human kinases (Homo sapiens, UniProt O14920); conditions: IKKb/IKBKE; 0.1 μM; 10 μM ATP; read-out: % Enzyme Activity (relative to DMSO controls)
T1 construct: purchased Reaction Biology Corp
Source text: (§1) ; FIG. 38C). […]. Further targeted analyses, such as genetic knock-down or knock-out, may be warranted to parse the role of these additional kinases in our model of neurodegeneration.

[2] = target: T2, panel of 371 human kinases (Homo sapiens, UniProt O60674); conditions: JAK2; 0.1 μM; 10 μM ATP; read-out: % Enzyme Activity (relative to DMSO controls)
T2 construct: purchased Reaction Biology Corp
Source text: as §1

[3] = target: T3, panel of 371 human kinases (Homo sapiens, UniProt P11802); conditions: 0.1 μM, 10 μM ATP, read-out: % Enzyme Activity (relative to DMSO controls)
T3 construct: purchased Reaction Biology Corp
Source text: as §1

[4] = target: T4, panel of 371 human kinases (Homo sapiens, UniProt P22612); conditions: PKAcg; 0.1 μM; 10 μM ATP; read-out: % Enzyme Activity (relative to DMSO controls)
T4 construct: purchased Reaction Biology Corp
Source text: as §1

[5] = target: T5, panel of 371 human kinases (Homo sapiens, UniProt P30291); conditions: WEE1; 0.1 μM; 10 μM ATP; read-out: % Enzyme Activity (relative to DMSO controls)
T5 construct: purchased Reaction Biology Corp
Source text: as §1

[6] = target: T6, panel of 371 human kinases (Homo sapiens, UniProt P57059); conditions: SIK1; 0.1 μM; 10 μM ATP; read-out: % Enzyme Activity (relative to DMSO controls)
T6 construct: purchased Reaction Biology Corp
Source text: as §1

[7] = target: T7, panel of 371 human kinases (Homo sapiens, UniProt Q12851); conditions: for remaining activity at 0.1 µM: GCK/MAP4K2, 10 μM ATP, read-out: % Enzyme Activity (relative to DMSO controls)
T7 construct: purchased Reaction Biology Corp
T7 sequence (Q12851 1-820): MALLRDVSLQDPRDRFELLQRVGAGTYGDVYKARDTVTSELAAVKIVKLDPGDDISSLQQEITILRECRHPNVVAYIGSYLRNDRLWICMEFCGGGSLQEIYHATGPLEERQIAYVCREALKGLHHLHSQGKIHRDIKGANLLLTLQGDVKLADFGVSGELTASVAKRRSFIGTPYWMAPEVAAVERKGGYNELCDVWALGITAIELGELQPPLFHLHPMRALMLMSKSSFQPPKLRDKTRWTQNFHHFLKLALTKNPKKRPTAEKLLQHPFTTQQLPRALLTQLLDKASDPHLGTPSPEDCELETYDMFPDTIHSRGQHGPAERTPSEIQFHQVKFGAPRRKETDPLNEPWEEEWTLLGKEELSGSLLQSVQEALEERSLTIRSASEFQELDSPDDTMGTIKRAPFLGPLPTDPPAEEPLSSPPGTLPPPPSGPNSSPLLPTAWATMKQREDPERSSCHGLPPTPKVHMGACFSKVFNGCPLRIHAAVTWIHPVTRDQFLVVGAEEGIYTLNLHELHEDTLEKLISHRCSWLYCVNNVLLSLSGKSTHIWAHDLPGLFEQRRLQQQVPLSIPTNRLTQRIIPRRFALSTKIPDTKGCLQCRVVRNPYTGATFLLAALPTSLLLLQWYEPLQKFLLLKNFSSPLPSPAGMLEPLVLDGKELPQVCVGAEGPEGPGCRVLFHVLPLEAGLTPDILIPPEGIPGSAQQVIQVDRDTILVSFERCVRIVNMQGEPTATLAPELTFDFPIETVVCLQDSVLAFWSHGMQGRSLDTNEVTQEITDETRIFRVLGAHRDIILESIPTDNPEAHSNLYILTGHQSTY
Source text: as §1

[8] = target: T8, panel of 371 human kinases (Homo sapiens, UniProt Q12852); conditions: DLK/MAP3K12; 0.1 μM; 10 μM ATP; read-out: % Enzyme Activity (relative to DMSO controls)
T8 construct: purchased Reaction Biology Corp
Source text: as §1

[9] = target: T9, panel of 371 human kinases (Homo sapiens, UniProt Q14164); conditions: IKKe/IKBKE; 0.1 μM; 10 μM ATP; read-out: % Enzyme Activity (relative to DMSO controls)
T9 construct: purchased Reaction Biology Corp
Source text: as §1

[10] = target: T10, panel of 371 human kinases (Homo sapiens, UniProt Q15208); conditions: STK38/NDR1; 0.1 μM; 10 μM ATP; read-out: % Enzyme Activity (relative to DMSO controls)
T10 construct: purchased Reaction Biology Corp
Source text: as §1

[11] = target: T11, panel of 371 human kinases (Homo sapiens, UniProt Q15303); conditions: ERBB4/HER4; 0.1 μM; 10 μM ATP; read-out: % Enzyme Activity (relative to DMSO controls)
T11 construct: purchased Reaction Biology Corp
Source text: as §1

[12] = target: T12, panel of 371 human kinases (Homo sapiens, UniProt Q15349); conditions: RSK3; 0.1 μM; 10 μM ATP; read-out: % Enzyme Activity (relative to DMSO controls)
T12 construct: purchased Reaction Biology Corp
Source text: as §1

[13] = target: T13, panel of 371 human kinases (Homo sapiens, UniProt Q15418); conditions: RSK1; 0.1 μM; 10 μM ATP; read-out: % Enzyme Activity (relative to DMSO controls)
T13 construct: purchased Reaction Biology Corp
Source text: as §1

[14] = target: T14, panel of 371 human kinases (Homo sapiens, UniProt Q99683); conditions: ASK1/MAP3K5; 0.1 μM; 10 μM ATP; read-out: % Enzyme Activity (relative to DMSO controls)
T14 construct: purchased Reaction Biology Corp
Source text: as §1

[15] = target: T15, panel of 371 human kinases (Homo sapiens, UniProt Q9BXA6); conditions: SSTK/TSSK6; 0.1 μM; 10 μM ATP; read-out: % Enzyme Activity (relative to DMSO controls)
T15 construct: purchased Reaction Biology Corp
Source text: as §1

[16] = target: T16, panel of 371 human kinases (Homo sapiens, UniProt Q9HBY8); conditions: SGK2; 0.1 μM; 10 μM ATP; read-out: % Enzyme Activity (relative to DMSO controls)
T16 construct: purchased Reaction Biology Corp
Source text: as §1

[17] = target: T17, panel of 371 human kinases (Homo sapiens, UniProt Q9NR20); conditions: DYRK4; 0.1 μM; 10 μM ATP; read-out: % Enzyme Activity (relative to DMSO controls)
T17 construct: purchased Reaction Biology Corp
Source text: as §1

[18] = target: T18, panel of 371 human kinases (Homo sapiens, UniProt Q9UQB9); conditions: Aurora C; 0.1 μM; 10 μM ATP; read-out: % Enzyme Activity (relative to DMSO controls)
T18 construct: purchased Reaction Biology Corp
Source text: as §1

T3 sequence (P11802 whole entry): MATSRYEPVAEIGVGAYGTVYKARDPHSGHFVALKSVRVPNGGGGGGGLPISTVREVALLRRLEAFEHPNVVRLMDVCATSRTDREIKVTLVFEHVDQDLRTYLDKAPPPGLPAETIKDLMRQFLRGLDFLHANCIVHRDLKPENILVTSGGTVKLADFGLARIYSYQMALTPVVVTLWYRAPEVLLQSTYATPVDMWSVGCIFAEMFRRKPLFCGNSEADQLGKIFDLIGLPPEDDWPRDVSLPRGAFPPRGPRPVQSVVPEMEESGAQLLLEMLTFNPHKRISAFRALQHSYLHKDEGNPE
T14 sequence (Q99683 whole entry): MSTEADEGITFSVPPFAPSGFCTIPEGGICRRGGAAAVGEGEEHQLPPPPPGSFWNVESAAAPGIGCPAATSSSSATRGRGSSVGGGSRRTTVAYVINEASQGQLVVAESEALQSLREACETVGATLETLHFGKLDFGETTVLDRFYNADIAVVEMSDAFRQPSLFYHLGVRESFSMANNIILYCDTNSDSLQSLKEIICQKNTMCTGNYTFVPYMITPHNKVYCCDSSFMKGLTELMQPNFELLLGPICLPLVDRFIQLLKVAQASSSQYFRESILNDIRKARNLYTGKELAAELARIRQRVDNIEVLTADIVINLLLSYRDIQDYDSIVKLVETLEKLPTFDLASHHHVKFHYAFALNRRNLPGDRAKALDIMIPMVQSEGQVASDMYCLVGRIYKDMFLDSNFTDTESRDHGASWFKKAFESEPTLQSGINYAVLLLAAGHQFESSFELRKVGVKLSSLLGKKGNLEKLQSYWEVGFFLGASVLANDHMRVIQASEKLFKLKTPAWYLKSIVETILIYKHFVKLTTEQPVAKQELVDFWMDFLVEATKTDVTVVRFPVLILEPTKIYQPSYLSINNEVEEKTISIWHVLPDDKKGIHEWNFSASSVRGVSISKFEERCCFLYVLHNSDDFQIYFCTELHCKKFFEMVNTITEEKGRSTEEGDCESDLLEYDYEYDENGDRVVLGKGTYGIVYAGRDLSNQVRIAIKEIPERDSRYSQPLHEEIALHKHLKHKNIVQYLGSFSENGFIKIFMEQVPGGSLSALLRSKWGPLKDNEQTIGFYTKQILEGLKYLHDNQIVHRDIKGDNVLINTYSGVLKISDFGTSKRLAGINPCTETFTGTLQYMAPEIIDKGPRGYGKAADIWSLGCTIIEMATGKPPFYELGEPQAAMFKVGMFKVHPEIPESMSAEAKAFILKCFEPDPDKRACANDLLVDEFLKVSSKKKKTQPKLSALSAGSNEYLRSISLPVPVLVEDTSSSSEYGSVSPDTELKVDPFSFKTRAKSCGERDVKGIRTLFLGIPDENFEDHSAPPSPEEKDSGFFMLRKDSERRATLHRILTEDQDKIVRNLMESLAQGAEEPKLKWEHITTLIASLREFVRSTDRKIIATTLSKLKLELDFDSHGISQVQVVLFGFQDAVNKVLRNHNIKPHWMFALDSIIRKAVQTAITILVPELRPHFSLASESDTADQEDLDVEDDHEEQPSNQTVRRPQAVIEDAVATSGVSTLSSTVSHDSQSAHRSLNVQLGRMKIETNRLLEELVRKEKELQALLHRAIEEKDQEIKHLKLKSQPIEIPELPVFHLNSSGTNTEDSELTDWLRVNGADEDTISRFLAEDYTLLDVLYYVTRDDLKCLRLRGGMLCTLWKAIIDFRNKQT
T11 sequence (Q15303 26-1308): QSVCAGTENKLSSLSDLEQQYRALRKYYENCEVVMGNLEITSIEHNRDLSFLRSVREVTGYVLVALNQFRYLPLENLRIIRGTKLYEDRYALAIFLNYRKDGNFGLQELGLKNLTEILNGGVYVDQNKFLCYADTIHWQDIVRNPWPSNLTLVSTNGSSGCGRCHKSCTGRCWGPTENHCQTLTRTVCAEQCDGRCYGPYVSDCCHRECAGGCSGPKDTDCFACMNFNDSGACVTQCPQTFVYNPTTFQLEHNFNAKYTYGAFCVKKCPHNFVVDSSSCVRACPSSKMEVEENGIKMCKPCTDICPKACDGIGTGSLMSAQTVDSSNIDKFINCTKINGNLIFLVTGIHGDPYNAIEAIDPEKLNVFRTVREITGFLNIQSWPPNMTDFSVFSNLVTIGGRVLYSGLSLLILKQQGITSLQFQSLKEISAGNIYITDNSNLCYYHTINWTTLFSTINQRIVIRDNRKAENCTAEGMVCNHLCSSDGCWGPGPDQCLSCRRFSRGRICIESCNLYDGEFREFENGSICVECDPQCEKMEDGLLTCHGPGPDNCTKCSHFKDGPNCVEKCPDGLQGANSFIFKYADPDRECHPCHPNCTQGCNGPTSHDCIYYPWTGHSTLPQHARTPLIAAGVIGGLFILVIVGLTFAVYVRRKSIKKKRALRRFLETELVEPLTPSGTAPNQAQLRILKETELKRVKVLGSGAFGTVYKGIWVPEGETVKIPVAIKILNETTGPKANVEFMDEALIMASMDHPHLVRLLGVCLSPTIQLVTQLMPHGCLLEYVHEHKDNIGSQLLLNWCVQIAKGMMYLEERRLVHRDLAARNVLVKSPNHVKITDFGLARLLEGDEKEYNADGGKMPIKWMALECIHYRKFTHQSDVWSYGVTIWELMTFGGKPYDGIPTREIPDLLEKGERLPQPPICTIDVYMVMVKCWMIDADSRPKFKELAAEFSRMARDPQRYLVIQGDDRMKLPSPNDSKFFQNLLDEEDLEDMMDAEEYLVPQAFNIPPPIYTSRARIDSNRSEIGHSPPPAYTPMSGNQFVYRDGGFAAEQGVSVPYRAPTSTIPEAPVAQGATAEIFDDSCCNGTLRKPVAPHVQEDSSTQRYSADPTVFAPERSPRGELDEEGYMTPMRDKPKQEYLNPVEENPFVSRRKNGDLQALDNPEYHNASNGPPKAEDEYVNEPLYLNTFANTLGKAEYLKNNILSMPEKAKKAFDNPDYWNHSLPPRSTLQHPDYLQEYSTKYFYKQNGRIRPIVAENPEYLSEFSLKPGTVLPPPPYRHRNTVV
T10 sequence (Q15208 whole entry): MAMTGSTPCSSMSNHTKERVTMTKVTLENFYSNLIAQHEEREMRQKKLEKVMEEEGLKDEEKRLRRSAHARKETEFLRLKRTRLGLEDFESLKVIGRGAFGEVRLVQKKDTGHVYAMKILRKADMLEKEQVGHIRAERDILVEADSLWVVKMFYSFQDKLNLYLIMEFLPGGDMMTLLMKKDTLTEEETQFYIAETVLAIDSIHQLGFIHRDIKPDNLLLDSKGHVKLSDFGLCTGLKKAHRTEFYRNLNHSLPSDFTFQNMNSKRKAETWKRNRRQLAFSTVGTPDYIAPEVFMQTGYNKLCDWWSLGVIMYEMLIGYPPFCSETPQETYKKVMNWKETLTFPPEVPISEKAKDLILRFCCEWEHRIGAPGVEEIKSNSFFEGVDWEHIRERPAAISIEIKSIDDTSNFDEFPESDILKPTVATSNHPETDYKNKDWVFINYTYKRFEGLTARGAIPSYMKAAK
T6 sequence (P57059 whole entry): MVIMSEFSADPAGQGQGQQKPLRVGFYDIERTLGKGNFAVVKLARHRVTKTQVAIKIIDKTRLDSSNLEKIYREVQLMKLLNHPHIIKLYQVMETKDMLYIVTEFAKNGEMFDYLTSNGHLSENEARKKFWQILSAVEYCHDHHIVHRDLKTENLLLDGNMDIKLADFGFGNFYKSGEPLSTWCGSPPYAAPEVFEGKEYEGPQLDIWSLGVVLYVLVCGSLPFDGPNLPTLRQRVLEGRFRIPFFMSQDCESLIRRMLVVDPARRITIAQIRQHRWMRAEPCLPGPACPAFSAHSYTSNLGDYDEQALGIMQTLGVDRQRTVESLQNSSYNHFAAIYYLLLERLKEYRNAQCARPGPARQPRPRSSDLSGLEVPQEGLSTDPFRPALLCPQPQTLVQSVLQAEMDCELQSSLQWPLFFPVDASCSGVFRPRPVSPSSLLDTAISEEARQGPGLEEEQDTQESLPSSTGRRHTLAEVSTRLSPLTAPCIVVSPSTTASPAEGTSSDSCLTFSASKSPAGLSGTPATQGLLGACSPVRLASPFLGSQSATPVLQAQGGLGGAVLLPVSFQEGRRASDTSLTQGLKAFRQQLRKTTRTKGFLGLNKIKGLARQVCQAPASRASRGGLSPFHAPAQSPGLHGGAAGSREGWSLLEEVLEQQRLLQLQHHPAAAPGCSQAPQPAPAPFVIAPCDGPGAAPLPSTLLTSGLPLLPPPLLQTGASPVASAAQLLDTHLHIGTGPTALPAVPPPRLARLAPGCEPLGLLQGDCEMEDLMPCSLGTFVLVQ
T17 sequence (Q9NR20 whole entry): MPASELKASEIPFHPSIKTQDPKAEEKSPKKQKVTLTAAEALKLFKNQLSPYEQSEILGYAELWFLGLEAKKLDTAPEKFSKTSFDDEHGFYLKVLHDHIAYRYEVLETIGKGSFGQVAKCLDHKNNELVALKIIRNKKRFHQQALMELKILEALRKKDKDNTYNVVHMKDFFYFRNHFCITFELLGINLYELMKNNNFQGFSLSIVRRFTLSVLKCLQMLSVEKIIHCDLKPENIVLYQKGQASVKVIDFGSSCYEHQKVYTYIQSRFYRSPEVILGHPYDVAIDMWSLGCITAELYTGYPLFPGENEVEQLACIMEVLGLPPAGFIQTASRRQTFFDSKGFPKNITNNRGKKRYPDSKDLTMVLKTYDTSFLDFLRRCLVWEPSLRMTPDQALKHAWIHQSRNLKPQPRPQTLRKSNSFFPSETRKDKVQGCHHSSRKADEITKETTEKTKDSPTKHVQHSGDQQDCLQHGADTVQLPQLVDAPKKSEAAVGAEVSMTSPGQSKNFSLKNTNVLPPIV
T18 sequence (Q9UQB9 whole entry): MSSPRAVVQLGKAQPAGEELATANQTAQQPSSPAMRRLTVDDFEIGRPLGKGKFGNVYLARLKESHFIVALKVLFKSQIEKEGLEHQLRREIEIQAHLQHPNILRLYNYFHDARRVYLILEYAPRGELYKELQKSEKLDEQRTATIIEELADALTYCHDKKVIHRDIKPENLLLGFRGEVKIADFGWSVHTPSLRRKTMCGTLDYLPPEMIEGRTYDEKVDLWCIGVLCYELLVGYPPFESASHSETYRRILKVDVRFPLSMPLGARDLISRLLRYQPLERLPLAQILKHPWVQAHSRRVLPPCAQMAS

SMILES | remaining activity at 0.1 µM [1] | remaining activity at 0.1 µM [2] | remaining activity at 0.1 µM ([3]; CDK4/cyclin D1) | remaining activity at 0.1 µM ([3]; CDK4/cyclin D3) | remaining activity at 0.1 µM [4] | remaining activity at 0.1 µM [5] | remaining activity at 0.1 µM [6] | remaining activity at 0.1 µM [7] | remaining activity at 0.1 µM [8] | remaining activity at 0.1 µM [9] | remaining activity at 0.1 µM [10] | remaining activity at 0.1 µM [11] | remaining activity at 0.1 µM [12] | remaining activity at 0.1 µM [13] | remaining activity at 0.1 µM [14] | remaining activity at 0.1 µM [15] | remaining activity at 0.1 µM [16] | remaining activity at 0.1 µM [17] | remaining activity at 0.1 µM [18] | fold change in GCK activity following 12k exposure relative to 1 ([7]; 0.025 μM)
CN1CCN(Cc2ccc(-c3cnc4[nH]cc(-c5ccc6[nH]ccc6c5)c4c3)cc2)CC1 [Compound 1, 3-(1H-Indol-5-yl)-5-(4-((4-methylpiperazin-1-yl)methyl)phenyl)-1H-pyrrolo[2,3-b]pyridine, reference compound] | 81.3% | 90.2% | 69.2% | 90.9% | 102% | 114% | 102% | 63.6% | 90.8% | 82.5% | 88.1% | 104% | 61.7% | 85.4% | 103% | 121% | 92.8% | 111% | 110% | –
OCCN1CCN(Cc2ccc(-c3cnc4[nH]cc(-c5cccc(Cl)c5)c4c3)cc2)CC1 [Compound 12k, 2-(4-(4-(3-(3-Chlorophenyl)-1H-pyrrolo[2,3-b]pyridin-5-yl)benzyl)piperazin-1-yl)ethan-1-ol] | 84.1% | 93% | 56.4% | 67.2% | 99.4% | 86.6% | 106% | 10.2% | 82.8% | 63.8% | 71.9% | 97.2% | 45.3% | 90% | 95.7% | 102% | 96.7% | 101% | 97.3% | 6.22 fold
